Data published in patent publication US8906825B2, “Herbicidal compositions comprising 4-amino-3-chloro-5-fluoro-6-(4-chloro-2-fluoro-3-methoxyphenyl) pyridine-2-carboxylic acid or a derivative thereof and triazolopyrimidine sulfonamides” (Dow AgroSciences LLC, priority 2012, dated 2014).

Tests used:
Type in all cases: in vivo
[1] = test system: BRAPP (Brachiaria platyphylla (Griseb.) Nash, broadleaf signalgrass); assay: Postemergence field trials in direct-seeded rice, United States (Example IV); conditions: foliar
Description: (§1) Multiple post-emergence field trials were conducted under field conditions in Tolima, Colombia; Thessaloniki, Greece; Ottobiano and Copiano, Italy; Greenville, Miss. and Eagle Lake, Tex., USA; and water-injected treatments were tested at Ryugasaki, Japan. Trial sites were located in commercially grown fields of direct-seeded rice (Oryza sativa) using standard herbicide small plot research methodology, except in Japan where transplanted rice was utilized for the field trial. Post-emergence trial plot size varied from 2 to 3 meter (m)×5 to 8 m (width×length) with 4 replicates per treatment. Water-injected trial plot size was 2×2 m with 3 replicates per treatment. The rice crop was grown using normal cultural practices for fertilization, seeding, watering, flooding and maintenance to ensure good growth of the crop and the weeds.
(§2) All treatments in the post-emergence field trials were applied using a backpack compressed air/gas sprayer with flat fan nozzles (80° or 110°) calibrated to apply 187 to 300 L/ha spray volume at approximately 200-400 kPa nozzle pressure. In Japan, treatments were water-injected applied where the specified amount of commercial product was mixed in 100 mls of water per replicate and applied directly into 3 cm deep water containing the crop and weeds. Treatments consisted of the benzyl ester of 4-amino-3-chloro-5-fluoro-6-(4-chloro-2-fluoro-3-methoxy-phenyl)pyridine-2-carboxylic acid (Compound A), formulated as an SC (suspension concentrate), and various herbicidal components alone and in combination.
(§3) Commercially available products of penoxsulam (Viper 20OD® (Europe), Grasp 240SC® (USA), and Wideattack 37.5SC® (Japan)) were mixed in water at appropriate formulated product rates to achieve the desired rates based on a unit area of application (hectare) to achieve the desired rates as shown. Treatments were rated at 15 to 56 days after application (DAA) as compared to the untreated control plants. Visual weed control was scored on a scale of 0 to 100 percent where 0 corresponds to no injury and 100 corresponds to complete kill.
(§4) All treatment results, both for the single product and mixtures, are an average of 3 to 4 replicates. The trial sites had naturally occurring populations of weeds. The weed spectrum included, but was not limited to, broadleaf signalgrass (Brachiaria platyphylla (Griseb.) Nash or Urochloa platyphylla (Nash) R.D. Webster, BRAPP), smallflower umbrellaplant (Cyperus difformis L., CYPDI), yellow nutsedge (Cyperus esculentus L., CYPES), multiple Echinochloa species in the same field (ECHSS) in Italy (mixed ECHSS biotypes), Amazon sprangletop (Leptochloa panicoides (J. Presl) A.S. Hitchc., LEFPA), and Japanese bulrush (Schoenoplectus juncoides (Roxb.) Palla, SCPJU).

[2] = test system: LEFPA (Leptochloa panicoides(Presl.) Hitchc., Amazon sprangletop); assay: as above; conditions: foliar
Description: as §1, §2, §3, §4

[3] = test system: LEFCH (Leptochloa chinensis (L.) Nees, Chinese sprangletop); assay: In-water applied herbicidal mixtures, transplanted paddy rice, greenhouse (Example II)

SMILES	Visual Weed Control (%) - 15-19 DAA BRAPP Obs ([1]; Compound A Benzyl Ester 32 gae/ha) [%]	Visual Weed Control (%) - 15-19 DAA LEFPA Obs ([2]; Compound A Benzyl Ester 24 gae/ha) [%]	Visual Weed Control (%) - 25 DAA LEFCH Obs ([3]; Compound A Benzyl Ester 8.75 gae/ha) [%]	Visual Weed Control (%) - 25 DAA LEFCH Obs ([3]; Compound A Benzyl Ester 17.5 gae/ha) [%]	Visual Weed Control (%) - 15-19 DAA BRAPP Obs ([1]; Penoxsulam 40 gai/ha) [%]	Visual Weed Control (%) - 15-19 DAA LEFPA Obs ([2]; Penoxsulam 40 gai/ha) [%]	Visual Weed Control (%) - 25 DAA LEFCH Obs ([3]; Penoxsulam 17.5 gai/ha, Table 11) [%]	Visual Weed Control (%) - 25 DAA LEFCH Obs ([3]; Penoxsulam 35 gai/ha, Table 10) [%]	Visual Weed Control (%) - 25 DAA LEFCH Obs ([3]; Penoxsulam 35 gai/ha, Table 11) [%]
COc1c(Cl)ccc(-c2nc(C(=O)OCc3ccccc3)c(Cl)c(N)c2F)c1F [Compound A Benzyl Ester, benzyl ester of 4-amino-3-chloro-5-fluoro-6-(4-chloro-2-fluoro-3-methoxy-phenyl)pyridine-2-carboxylic acid]	62	53	50	90					
COc1cnc(OC)n2nc(NS(=O)(=O)c3c(OCC(F)F)cccc3C(F)(F)F)nc12 [Penoxsulam, 2-(2,2-difluoroethoxy)-N-(5,8-dimethoxy[1,2,4]triazolo[1,5-c]pyrimidin-2-yl)-6-(trifluoromethyl)benzenesulfonamide, reference compound]					35	16	0	40	40
